From paper PMC4186413, “Identification of metabolic pathways and enzyme systems involved in the in vitro human hepatic metabolism of dronedarone, a potent new oral antiarrhythmic drug” (Pharmacology Research & Perspectives, 2014)

Columns and labels:
Type in all cases: in vitro ADME
[1] = tested on: FMO-1, -3, and -5; assay: Oxidation by recombinant human FMOs; settings: 1 mg/mL, 5 μmol/L, 30 min, NADPH
Description: (§1) Recombinant human CYPs (Supersomes™; BD Gentes, Woburn, MA: CYP1A1, CYP1A2, CYP2A6, CYP2B6, CYP2C8, CYP2C9, CYP2C18, CYP2C19, CYP2D6, CYP2E1, CYP3A4 and CYP3A5), FMOs (Supersomes™: FMO1, FMO3, FMO5), MAOs (Supersomes™: MAO-A and MAO-B), and UGTs (Supersomes™: UGT1A1, UGT1A3, UGT1A4, UGT1A6, UGT1A7, UGT1A8, UGT1A9, UGT1A10, UGT2B4, UGT2B7, UGT2B15, and UGT2B17) expressed in baculovirus-infected insect cells and control microsomes from insect cells infected with wild-type baculovirus were all obtained from BD Gentest (Woburn, MA).
(§2) For oxidative pathways, the assay mixture was composed of human liver microsomes (1 mg·m·L^−1) or microsomes of baculovirus-infected cells expressing human enzymes (100 pmol·mL^−1 for CYPs and 1 mg·mL^−1 for FMOs and MAOs), nicotinamide adenine dinucleotide phosphate reduced form (NADPH) (1 mmol/L), 100 mmol/L potassium phosphate (pH 7.4), and 5 μmol/L of the investigated compound dissolved in DMSO in a final volume of 500 μL.
(§3) The final concentration of DMSO in the reaction mixture was less than 1% (v/v). Initial rate conditions with respect to time and protein concentration for both the disappearance of unchanged drug and the formation of respective metabolites were established in preliminary studies. The enzyme reaction was initiated by addition of NADPH (10 mmol/L aqueous solution) to achieve a final concentration of 1 mmol/L for oxidative CYP- and FMO-dependent reactions or by the drug for MAO-dependent reactions, incubated at 37°C and stopped after 0–30 min by addition of one volume of ice-cold acetonitrile.
(§4) In human liver microsomes and recombinant isoforms, the percentage of metabolism was determined on the basis of unchanged drug disappearance, using the following equation [drawing 1] where UDt = 30 min represents the unchanged drug peak area after a 30-min incubation period and UDt = 0, the unchanged drug peak area at t = 0.
(§5) To identify the specific isoforms that are capable of oxidizing dronedarone and its metabolites, assays were performed using c-DNA-expressed isoforms belonging to CYP- (CYP1A1, -1A2, -2A6, -2B6, -C8, -2C9, -2C18, -2C19, -2D6, -2E1, -3A4, and -3A5), FMO- (FMO-1, -3, and -5) and MAO- (MAO-A and MAO-B) families.
Figure 5 Contribution of individual CYPs, FMOs and MAOs to the oxidation of dronedarone and its metabolites. Individual CYPs (100 pmol/mL), FMOs (1 mg/mL) and MAOs (1 mg/mL) were incubated with either dronedarone (A) or its metabolites, N-debutyl-dronedarone (B), propanoic acid-dronedarone (C), and phenol-dronedarone (D), at a concentration of 5 μmol/L, for 30 min at 37°C in the presence of NADPH, except for MAOs where incubations were performed in the absence of cofactor. Unchanged drugs were quantified by LC/MS-MS relative to the synthetic references as described in Materials and Methods. Data are expressed as the percentage of oxidation.

[2] = tested on: MAO-A and MAO-B; assay: Oxidation by recombinant human MAOs; settings: 1 mg/mL, 5 μmol/L, 30 min, no cofactor
Description: as §1, §2, §3, §4, §5
(§6) Figure 5 Contribution of individual CYPs, FMOs and MAOs to the oxidation of dronedarone and its metabolites. […] Unchanged drugs were quantified by LC/MS-MS relative to the synthetic references as described in Materials and Methods. Data are expressed as the percentage of oxidation.

[3] = target: T1, CYP3A4 (Homo sapiens, UniProt P08684); assay: Oxidation by recombinant human CYP3A4; settings: for Percentage of oxidation (unchanged drug disappearance) by CYP3A4: 100 pmol/mL, 5 μmol/L, 30 min, NADPH
T1 construct: purchased BD Gentest (Woburn, MA); host or cells: baculovirus-infected insect cells
T1 sequence (P08684 whole entry): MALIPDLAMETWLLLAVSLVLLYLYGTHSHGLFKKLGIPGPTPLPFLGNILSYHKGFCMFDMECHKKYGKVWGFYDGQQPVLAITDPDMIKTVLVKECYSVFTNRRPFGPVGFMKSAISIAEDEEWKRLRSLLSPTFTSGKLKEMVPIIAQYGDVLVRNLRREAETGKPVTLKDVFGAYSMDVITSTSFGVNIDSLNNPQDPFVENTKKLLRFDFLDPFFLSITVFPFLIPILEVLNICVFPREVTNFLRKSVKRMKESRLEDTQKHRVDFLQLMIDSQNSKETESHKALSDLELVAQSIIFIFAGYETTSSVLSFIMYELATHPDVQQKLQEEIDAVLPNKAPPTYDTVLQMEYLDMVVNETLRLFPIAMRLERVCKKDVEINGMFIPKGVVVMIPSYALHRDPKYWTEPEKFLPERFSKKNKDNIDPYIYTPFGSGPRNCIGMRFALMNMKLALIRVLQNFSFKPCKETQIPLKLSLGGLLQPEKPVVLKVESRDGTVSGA
Description: as §1, §2
The final concentration of DMSO in the reaction mixture was less than 1% (v/v). Initial rate conditions with respect to time and protein concentration for both the disappearance of unchanged drug and the formation of respective metabolites were established in preliminary studies. […]
as §4, with “0. […]” for “0.”
as §6

[4] = target: T2, CYP3A5 (Homo sapiens, UniProt P20815); assay: Oxidation by recombinant human CYP3A5
T2 construct: purchased BD Gentest (Woburn, MA); host or cells: baculovirus-infected insect cells
T2 sequence (P20815 whole entry): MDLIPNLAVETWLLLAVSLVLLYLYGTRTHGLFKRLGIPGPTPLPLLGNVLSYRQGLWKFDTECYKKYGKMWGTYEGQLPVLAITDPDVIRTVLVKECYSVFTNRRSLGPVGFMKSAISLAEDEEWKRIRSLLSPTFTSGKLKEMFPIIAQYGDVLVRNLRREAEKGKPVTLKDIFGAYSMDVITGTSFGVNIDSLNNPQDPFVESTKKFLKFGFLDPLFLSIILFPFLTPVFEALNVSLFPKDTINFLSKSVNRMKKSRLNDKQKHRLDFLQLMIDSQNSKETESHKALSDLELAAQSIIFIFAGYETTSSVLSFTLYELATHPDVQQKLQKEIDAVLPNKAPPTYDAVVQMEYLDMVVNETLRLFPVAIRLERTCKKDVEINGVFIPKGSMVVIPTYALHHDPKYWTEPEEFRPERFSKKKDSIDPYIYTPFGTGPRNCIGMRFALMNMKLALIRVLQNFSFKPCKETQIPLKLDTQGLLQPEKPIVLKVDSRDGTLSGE
Description: as §1, with “MA). […]” for “MA).”
as §4, with “0. […]” for “0.”
as §6

[5] = target: T3, CYP1A1 (Homo sapiens, UniProt P04798); assay: Oxidation by recombinant human CYP1A1; settings: 100 pmol/mL, 5 μmol/L, 30 min, NADPH
T3 construct: purchased BD Gentest (Woburn, MA); host or cells: baculovirus-infected insect cells
T3 sequence (P04798 whole entry): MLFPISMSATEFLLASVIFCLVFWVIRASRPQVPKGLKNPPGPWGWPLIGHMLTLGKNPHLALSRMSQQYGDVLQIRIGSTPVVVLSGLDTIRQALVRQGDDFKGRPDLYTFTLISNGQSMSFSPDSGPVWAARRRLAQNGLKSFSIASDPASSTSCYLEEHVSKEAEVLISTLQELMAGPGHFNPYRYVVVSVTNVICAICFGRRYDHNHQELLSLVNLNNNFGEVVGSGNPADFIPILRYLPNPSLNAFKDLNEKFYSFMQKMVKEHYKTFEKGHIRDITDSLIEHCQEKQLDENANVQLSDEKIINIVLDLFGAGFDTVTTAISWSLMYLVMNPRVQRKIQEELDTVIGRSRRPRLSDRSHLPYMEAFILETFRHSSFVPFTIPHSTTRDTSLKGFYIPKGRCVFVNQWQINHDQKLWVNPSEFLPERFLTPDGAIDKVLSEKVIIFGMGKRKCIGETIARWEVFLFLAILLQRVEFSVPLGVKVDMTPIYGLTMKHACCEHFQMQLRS
Description: as §1, with “MA). […]” for “MA).”
as §4, with “0. […]” for “0.”
as §6

[6] = target: T4, UGT2B7 (Homo sapiens, UniProt P16662); assay: Glucuronidation by recombinant human UGT2B7; settings: 1 mg/mL, 5 μmol/L, 30 min, UDPGA
T4 construct: purchased BD Gentest (Woburn, MA); host or cells: baculovirus-infected insect cells
T4 sequence (P16662 24-529): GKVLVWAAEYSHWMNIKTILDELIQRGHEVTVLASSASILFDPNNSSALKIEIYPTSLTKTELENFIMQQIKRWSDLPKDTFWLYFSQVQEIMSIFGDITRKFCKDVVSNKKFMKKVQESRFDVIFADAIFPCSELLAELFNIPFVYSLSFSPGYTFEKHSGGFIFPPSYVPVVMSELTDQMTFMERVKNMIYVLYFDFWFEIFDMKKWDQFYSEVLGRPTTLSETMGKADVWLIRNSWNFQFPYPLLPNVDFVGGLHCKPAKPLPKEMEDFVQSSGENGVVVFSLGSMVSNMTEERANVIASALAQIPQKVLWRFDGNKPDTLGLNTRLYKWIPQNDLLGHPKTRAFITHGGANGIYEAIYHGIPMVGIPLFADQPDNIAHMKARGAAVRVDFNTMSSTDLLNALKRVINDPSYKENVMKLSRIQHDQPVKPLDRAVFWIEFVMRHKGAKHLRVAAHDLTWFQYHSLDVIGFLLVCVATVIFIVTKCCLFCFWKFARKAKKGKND
Description: as §1
For glucuronidation pathways, the assay mixture was composed of human liver microsomes (2 mg·mL^−1) or microsomes of baculovirus-infected cells expressing human UGTs (1 mg·mL^−1), uridine 5′-diphosphoglucuronic acid (UDPGA) (3 mmol/L), 100 mmol/L Tris HCl (pH 7.4) containing 5 mmol/L MgCl2 and 5 μmol/L of the investigated compound dissolved in DMSO in a final volume of 500 μL. The final concentration of DMSO in the reaction mixture was less than 1% (v/v). […]
Figure 7 Contribution of individual UGTs to the glucuronidation of propanoic acid-dronedarone and phenol-dronedarone. […] Unchanged drugs were quantified by LC/MS-MS relative to the synthetic references as described in Materials and Methods. Data are expressed as the percentage of glucuronidation.

[7] = 5 μmol/L dronedarone, end of 30-min incubation

Row | SMILES | Oxidation by FMOs [1] | Oxidation by MAOs [2] | Percentage of oxidation (unchanged drug disappearance) by CYP3A4 [3] [%] | Metabolite formed, as percent of initial dronedarone concentration, with CYP3A4 [3, 7] [%] | Metabolite formed, as percent of initial dronedarone concentration, with CYP3A5 [4, 7] [%] | Percentage of oxidation (unchanged drug disappearance) by CYP1A1 [5] [%] | Glucuronosyl transferase activity of UGT2B7 [6] | Percentage of oxidation (unchanged drug disappearance) by CYP3A5 ([4]; 100 pmol/mL, 5 μmol/L, 30 min, NADPH) [%]
1 | CCCCN(CCCC)CCCOc1ccc(C(=O)O)cc1 [C-dealkyl-dronedarone] | not metabolized | not metabolized |  |  |  |  |  | 
2 | CCCCNCCCOc1ccc(C(=O)c2c(CCCC)oc3ccc(NS(C)(=O)=O)cc23)cc1 [N-debutyl-dronedarone] | Neither other CYPs nor FMOs metabolized N-debutyl-dronedarone to any significant extent |  | 21 | 60 | 50 |  |  | 
3 | CCCCc1oc2ccc(NS(C)(=O)=O)cc2c1C(=O)c1ccc(OCCC(=O)O)cc1 [Propanoic acid-dronedarone] | Neither other CYPs, nor FMOs and MAOs metabolized propanoic acid-dronedarone to any significant extent | Neither other CYPs, nor FMOs and MAOs metabolized propanoic acid-dronedarone to any significant extent |  |  |  | 59 | significant glucuronosyl transferase activity | 
4 | CCCCc1oc2ccc(NS(C)(=O)=O)cc2c1C(=O)c1ccc(OCCCN(CCCC)CCCC)cc1.Cl [Dronedarone, N-(2-Butyl-3-(4-(3-(dibutylamino)propoxy)benzoyl)-5-benzofuranyl)methanesulfonamide, hydrochloride] | not involved | not involved | 94 |  |  |  |  | 90
5 | CCCCc1oc2ccc(NS(C)(=O)=O)cc2c1C(=O)c1ccc(O)cc1 [Phenol-dronedarone] | contributed to a very small extent | contributed to a very small extent |  |  |  | 99 | significant glucuronosyl transferase activity | 
